Data from US20220146526A1, “METHOD FOR EVALUATING SAMPLE, ANALYSIS METHOD, METHOD FOR DETECTING DEGRADED SAMPLE, MARKER FOR DETECTING DEGRADED BLOOD PLASMA SAMPLE, AND MARKER FOR DETECTING DEGRADED SERUM SAMPLE” (SHIMADZU CORPORATION, priority 2019, published 2022).

experiment: GC/MS of blood plasma sample: number of times of freezing and thawing (Table C); format: physicochemical, human; settings: detection intensity, freezing and thawing 4 times vs 2 times
How it was run: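 Values express detection intensity as a ratio to the 2-cycle freeze-thaw sample (=1), compared with 4, 6 and 10 cycles. Healthy-donor EDTA plasma, cooled at ≤1 min or ≥5 min, spun at 4 °C, 3000 rpm, 15 min. Derivatised by methoxymation/trimethylsilylation; GC-MS/MS in MRM mode with electron ionization.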

Compound	Increase or decrease
N[C@@H](CS(=O)O)C(=O)O [3-Sulfinoalanine]	Different from individual
O[C@@H]1[C@@H](O)[C@@H]2OC[C@@H](O2)[C@H]1O [1,6-Anhydroglucose]	Different from individual
O=C(O)CCCCCCCC(=O)O [Azelaic acid]	Different from individual
Oc1ccccn1 [2-Hydroxypyridine]	Different from individual

same assay, conditions: different from individual to individual, individuals with decrease, relative to 1 at 2 times, freezing and thawing 4 times

Compound	Rate of increase or decrease (second value, decrease)
N[C@@H](CS(=O)O)C(=O)O [3-Sulfinoalanine]	0.58
O[C@@H]1[C@@H](O)[C@@H]2OC[C@@H](O2)[C@H]1O [1,6-Anhydroglucose]	0.42
O=C(O)CCCCCCCC(=O)O [Azelaic acid]	0.66
Oc1ccccn1 [2-Hydroxypyridine]	0.54

same assay, conditions: different from individual to individual, individuals with increase, relative to 1 at 2 times, freezing and thawing 4 times

Compound	Rate of increase or decrease (first value, increase)
N[C@@H](CS(=O)O)C(=O)O [3-Sulfinoalanine]	1.59
O[C@@H]1[C@@H](O)[C@@H]2OC[C@@H](O2)[C@H]1O [1,6-Anhydroglucose]	3.49
O=C(O)CCCCCCCC(=O)O [Azelaic acid]	1.45
Oc1ccccn1 [2-Hydroxypyridine]	2.48

experiment: GC/MS of serum sample: number of times of freezing and thawing (Table I); format: physicochemical, human; design: key to Rate of increase or decrease / Rate of increase or decrease (first value, increase): detection intensity relative to 2 freeze-thaw cycles = 1; settings: 10 times of freezing and thawing; detection intensity relative to 1 at 2 times
How it was run: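 Detection intensities are ratios to the value after two freeze–thaw cycles, which is set as 1, compared against 4, 6 and 10 cycles. Analysis used methoxymation and trimethylsilylation derivatization, then GC/MS with EI ionization and multiple reaction monitoring on a BPX5 column. Serum came from blood held at room temperature and spun at 3500 rpm for 5 min.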

Compound	Rate of increase or decrease
O=C(O)CCCCCCCC(=O)O [Azelaic acid]	9.39

same assay, conditions: detection intensity relative to 1 at 2 times; serum, GC/MS; freezing and thawing 4 times

Compound	Rate of increase or decrease
N[C@@H](CS(=O)O)C(=O)O [3-Sulfinoalanine]	0.47
O[C@@H]1[C@@H](O)[C@@H]2OC[C@@H](O2)[C@H]1O [1,6-Anhydroglucose]	2.25
Oc1ccccn1 [2-Hydroxypyridine]	0.50

same assay, conditions: detection intensity; serum, GC/MS; freezing and thawing 4 times vs 2 times

Compound	Increase or decrease
N[C@@H](CS(=O)O)C(=O)O [3-Sulfinoalanine]	Decrease
O[C@@H]1[C@@H](O)[C@@H]2OC[C@@H](O2)[C@H]1O [1,6-Anhydroglucose]	Increase
Oc1ccccn1 [2-Hydroxypyridine]	Decrease

same assay, conditions: serum sample, GC/MS; detection intensity changed by 30% or more vs 2 times of freezing and thawing

Compound	Number of times when compound is affected [times]
O=C(O)CCCCCCCC(=O)O [Azelaic acid]	10

same assay, conditions: serum sample, GC/MS; detection intensity vs 2 times of freezing and thawing

Compound	Increase or decrease
O=C(O)CCCCCCCC(=O)O [Azelaic acid]	Increase

experiment: GC/MS of serum sample: time from blood collection to centrifugation (Table G); format: physicochemical, human; settings: detection intensity relative to 1 at 15 minutes, blood collection to centrifugation, after 4 hours
How it was run: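 Values express detection intensity as a ratio to the sample centrifuged 15 minutes after blood collection (taken as 1). Serum was derivatized by methoxymation and trimethylsilylation, then analysed by electron-ionization GC/MS using multiple reaction monitoring on a BPX5 column ramped from 60 to 330° C.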

Compound	Rate of increase or decrease
N[C@@H](CS(=O)O)C(=O)O [3-Sulfinoalanine]	1.91
O=C(O)CCCCCCCC(=O)O [Azelaic acid]	0.51
Oc1ccccn1 [2-Hydroxypyridine]	2.55

same assay, conditions: detection intensity relative to 1 at 15 minutes, blood collection to centrifugation, after 8 hours

Compound	Rate of increase or decrease
O[C@@H]1[C@@H](O)[C@@H]2OC[C@@H](O2)[C@H]1O [1,6-Anhydroglucose]	0.62

same assay, conditions: detection intensity, blood collection to centrifugation, after 4 hours vs 15 minutes

Compound	Increase or decrease
N[C@@H](CS(=O)O)C(=O)O [3-Sulfinoalanine]	Increase
O=C(O)CCCCCCCC(=O)O [Azelaic acid]	Decrease
Oc1ccccn1 [2-Hydroxypyridine]	Increase

same assay, conditions: detection intensity, blood collection to centrifugation, after 8 hours vs 15 minutes

Compound	Increase or decrease
O[C@@H]1[C@@H](O)[C@@H]2OC[C@@H](O2)[C@H]1O [1,6-Anhydroglucose]	Decrease

experiment: GC/MS of blood plasma sample: time from blood collection to cooling of blood (Table B); format: physicochemical, human; design: key to Rate of increase or decrease / Rate of increase or decrease (first value, increase): detection intensity relative to 1 at cooling time ≤1 min; settings: detection intensity relative to 1 at 1 minute or less, blood collection to cooling 5 minutes
How it was run: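 Blood drawn at room temperature into EDTA tubes, mixed, then cooled at 4° C. within 1 minute or less versus 5 minutes or more before centrifugation (4° C., 3000 rpm, 15 minutes). Plasma was frozen, methoxymated and trimethylsilylated, and analysed by EI GC/MS in MRM mode. Values are detection intensity relative to the ≤1 minute condition.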

Compound	Rate of increase or decrease
N[C@@H](CS(=O)O)C(=O)O [3-Sulfinoalanine]	0.61
O[C@@H]1[C@@H](O)[C@@H]2OC[C@@H](O2)[C@H]1O [1,6-Anhydroglucose]	0.62
O=C(O)CCCCCCCC(=O)O [Azelaic acid]	0.67
Oc1ccccn1 [2-Hydroxypyridine]	0.59

same assay, conditions: detection intensity, blood collection to cooling 5 minutes or more vs 1 minute or less

Compound	Increase or decrease
N[C@@H](CS(=O)O)C(=O)O [3-Sulfinoalanine]	Decrease
O[C@@H]1[C@@H](O)[C@@H]2OC[C@@H](O2)[C@H]1O [1,6-Anhydroglucose]	Decrease
O=C(O)CCCCCCCC(=O)O [Azelaic acid]	Decrease
Oc1ccccn1 [2-Hydroxypyridine]	Decrease

experiment: GC/MS of serum sample: time from centrifugation to isolation (Table H); format: physicochemical, human; design: key to Rate of increase or decrease / Rate of increase or decrease (first value, increase): detection intensity relative to 1 at 30 min centrifugation-to-isolation; settings: detection intensity relative to 1 at 30 minutes, after 1 hour
How it was run: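 Values are GC/MS (EI, MRM) detection intensities of methoxymated/trimethylsilylated serum, normalised to 1 for the 30-min sample. Serum was isolated 30 min, 1 h or 6 h after room-temperature centrifugation (3500 rpm, 5 min) of blood.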

Compound	Rate of increase or decrease
N[C@@H](CS(=O)O)C(=O)O [3-Sulfinoalanine]	3.07
O[C@@H]1[C@@H](O)[C@@H]2OC[C@@H](O2)[C@H]1O [1,6-Anhydroglucose]	2.25
O=C(O)CCCCCCCC(=O)O [Azelaic acid]	1.71
Oc1ccccn1 [2-Hydroxypyridine]	1.44

same assay, conditions: detection intensity, after 1 hour vs 30 minutes

Compound	Increase or decrease
N[C@@H](CS(=O)O)C(=O)O [3-Sulfinoalanine]	Increase
O[C@@H]1[C@@H](O)[C@@H]2OC[C@@H](O2)[C@H]1O [1,6-Anhydroglucose]	Increase
O=C(O)CCCCCCCC(=O)O [Azelaic acid]	Increase
Oc1ccccn1 [2-Hydroxypyridine]	Increase

experiment: GC/MS of blood plasma sample: time from blood collection to centrifugation (Table A); format: physicochemical, human; settings: detection intensity relative to 1 at 15 minutes, blood collection to centrifugation, after 4 hours
How it was run: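 Read-out is MRM detection intensity by electron-ionization GC/MS on a BPX5 column after methoxymation and trimethylsilylation, expressed relative to a 15-minute collection-to-centrifugation interval. Plasma was prepared from EDTA blood held at 4° C and spun at 4° C, 3000 rpm for 15 minutes, then frozen.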

Compound	Rate of increase or decrease
O[C@@H]1[C@@H](O)[C@@H]2OC[C@@H](O2)[C@H]1O [1,6-Anhydroglucose]	1.42
O=C(O)CCCCCCCC(=O)O [Azelaic acid]	2.03
Oc1ccccn1 [2-Hydroxypyridine]	0.57

same assay, conditions: detection intensity, blood collection to centrifugation, after 4 hours vs 15 minutes

Compound	Increase or decrease
N[C@@H](CS(=O)O)C(=O)O [3-Sulfinoalanine]	Different from individual
O[C@@H]1[C@@H](O)[C@@H]2OC[C@@H](O2)[C@H]1O [1,6-Anhydroglucose]	Increase
O=C(O)CCCCCCCC(=O)O [Azelaic acid]	Increase
Oc1ccccn1 [2-Hydroxypyridine]	Decrease

same assay, conditions: different from individual to individual, individuals with decrease, relative to 1 at 15 minutes, collection to centrifugation, after 4 hours

Compound	Rate of increase or decrease (second value, decrease)
N[C@@H](CS(=O)O)C(=O)O [3-Sulfinoalanine]	0.32

same assay, conditions: different from individual to individual, individuals with increase, relative to 1 at 15 minutes, collection to centrifugation, after 4 hours

Compound	Rate of increase or decrease (first value, increase)
N[C@@H](CS(=O)O)C(=O)O [3-Sulfinoalanine]	1.88
